From US20080076770A1, “SOLUBLE EPOXIDE HYDROLASE INHIBITORS” (Arete Therapeutics, Inc., priority 2006, published 2008)

Legend:
[1] = system: soluble epoxide hydrolase (sEH); assay: Fluorescent assay for mouse and human soluble epoxide hydrolase (CMNPC substrate); assay type: biochemical; conditions: recombinant sEH, CMNPC substrate 5 μM, 30° C
Text: Fluorescent Assay for Mouse and Human Soluble Epoxide Hydrolase
Recombinant mouse sEH (MsEH) and human sEH (HsEH) were produced in a baculovirus expression system as previously reported. Grant et al., J. Biol. Chem., 268:17628-17633 (1993); Beetham et al., Arch. Biochem. Biophys., 305:197-201 (1993). The expressed proteins were purified from cell lysate by affinity chromatography. Wixtrom et al., Anal. Biochem., 169:71-80 (1988). Protein concentration was quantified using the Pierce BCA assay using bovine serum albumin as the calibrating standard. The preparations were at least 97% pure as judged by SDS-PAGE and scanning densitometry. They contained no detectable esterase or glutathione transferase activity which can interfere with the assay. The assay was also evaluated with similar results in crude cell lysates or homogenate of tissues.
The IC50s for each inhibitor were according to the following procedure: Substrate: [drawing 66]
Cyano(2-methoxynaphthalen-6-yl)methyl (3-phenyloxiran-2-yl)methyl carbonate (CMNPC; Jones P. D. et. al.; Analytical Biochemistry 2005; 343: pp. 66-75)
Bis/Tris HCl 25 mM pH 7.0 containing 0.1 mg/mL of BSA (buffer A)
CMNPC at 0.25 mM in DMSO.
Mother solution of enzyme in buffer A (Mouse sEH at 6 μg/mL and Human sEH at 5 μg/mL).
Inhibitor dissolved in DMSO at the appropriate concentration.
In a black 96 well plate, fill all the wells with 150 μL of buffer A.
Add 2 μL of DMSO in well A2 and A3, and then add 2 μL of inhibitor solution in A1 and A4 through A 12.
Add 150 μL of buffer A in row A, then mix several time and transfer 150 μL to row B. Repeat this row operation up to row H. The 150 μL removed from row H go to the trash.
Add 20 μL of buffer A in column 1 and 2, then add 20 μL of enzyme solution to column 3 to 12.
Incubate the plate for 5 minutes in the plate reader at 30° C.
During incubation prepare the working solution of substrate by mixing 3.68 mL of buffer A (4×0.920 mL) with 266 μL (2×133 μL (2×133 μL) of substrate solution).
At t=0, add 30 μL of working substrate solution with multi-channel pipette labeled “Briggs 303” and start the reading ([S]final: 5 μM).
Read with ex: 330 nm (20 nm) and em: 465 nm (20 nm) every 30 second for 10 minutes. The velocities are used to analyze and calculate the IC50s.

Structure (SMILES) | melting point [°C] | % I ([1]; compound concentration 50 nM) [%] | % I ([1]; compound concentration 500 nM) [%]
O=C(Nc1cccc(N2CCCC2=O)c1)NC12CC3CC(CC(C3)C1)C2 [Compound 10, 1-Adamantan-1-yl-3-[3-(2-oxo-pyrrolidin-1-yl)-phenyl]-urea] | 239 to 242 | – | 88
O=C(Nc1ccc(C(F)(F)F)cc1)Nc1cccc(N2CCCC2=O)c1 [Compound 20, 1-[3-(2-Oxo-pyrrolidin-1-yl)-phenyl]-3-(4-trifluoromethyl-phenyl)-urea] | 220 to 224 | 84 | –
O=C(Nc1ccc(-n2ccnc2)cc1)Nc1ccc(C(F)(F)F)cc1 [Compound 11, 1-(4-(1H-imidazol-1-yl)-phenyl)-3-(4-trifluoromethyl-phenyl)-urea] | 209 to 213 | 92 | –
O=C(Nc1ccc(-n2cnc(Cl)c2Cl)cc1)Nc1ccc(C(F)(F)F)cc1 [Compound 13, 1-[4-(4,5-dichloro-1H-imidazol-1-yl)-phenyl]-3-(4-trifluoromethyl-phenyl)-urea] | 221 to 224 | 95 | –
O=C(Nc1ccc(C(F)(F)F)cc1)Nc1cccc(N2CCOCC2)c1 [Compound 19, 1-(3-Morpholin-4-yl-phenyl)-3-(4-trifluoromethyl-phenyl)-urea] | 240 to 244 | 79 | –
O=C(Nc1ccc(N2CCCC2=O)cc1)Nc1ccc(C(F)(F)F)cc1 [Compound 15] | 282 to 285 | 74 | –

The remaining lines, values ahead:

melting point [°C] | % I ([1]; compound concentration 50 nM) [%] | % I ([1]; compound concentration 500 nM) [%] | Structure (SMILES)
> 300 | 82 | – | O=C(Nc1ccc(N2CCCC2=O)cc1)NC12CC3CC(CC(C3)C1)C2 [Compound 5, 1-Adamantan-1-yl-3-[4-(2-oxo-pyrrolidin-1-yl)-phenyl]-urea]
272 to 276 | – | – | O=C(Nc1ccc(-n2ccnc2)cc1)NC12CC3CC(CC(C3)C1)C2 [Compound 1, 1-Adamantan-1-yl-3-[4-(1H-imidazol-1-yl)-phenyl]-urea]
234 to 238 | 96 | – | Cc1nccn1-c1ccc(NC(=O)Nc2ccc(C(F)(F)F)cc2)cc1 [Compound 12, 1-[4-(2-methyl-1H-imidazol-1-yl)-phenyl]-3-(4-trifluoromethyl-phenyl)-urea]
228 to 232 | 87 | – | O=C(Nc1ccc(N2CCOCC2)cc1)Nc1ccc(C(F)(F)F)cc1 [Compound 14, 1-(4-Morpholin-4-yl-phenyl)-3-(4-trifluoromethyl-phenyl)-urea]
